# Test results: patent US9833497B2, “Human originated EGF domain proteins and use of the same” (CHENGDU SOURCEBIO LIMITED-LIABILITY COMPANY, priority 2013, dated 2017)
# Assays:
# Format in all cases: cell-based
# E. coli DH5α = test: Antibacterial activity: MIC and growth curve against E. coli DH5α in 96-well plate; conditions: minimal inhibitory concentration against E. coli DH5α; 96-well plate, 5×10^5 CFU/mL, 37° C., judged after 8 h
# How it was run: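 MIC taken as lowest protein level with no bacterial growth, tracked by A600 every 30 min during 37 °C, 175 rpm culture. Two-fold protein series 50-12.5 μg/mL final, triplicate wells, against 5×10^5 CFU/mL of LB-washed mid-log cells.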
# E. coli BL21 = test: MIC against Gram-negative bacteria: E. coli BL21
# How it was run: (§1)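 The recombinant human-originated EGF domain proteins were serially diluted two-fold against bacteria at 5×10^5 CFU/mL in LB medium. After shaken incubation at 37° C, the lowest concentration with no bacterial growth was recorded as the MIC.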
# Pseudomonas aeruginosa = test: MIC against Gram-negative bacteria: Pseudomonas aeruginosa; conditions: for MIC against P. aeruginosa: Pseudomonas aeruginosa
# How it was run: as §1
# Klebsiella pneumonia = test: MIC against Gram-negative bacteria: Klebsiella pneumonia; conditions: for MIC against K. pneumonia: Klebsiella pneumonia
# How it was run: as §1
# Enterobacter cloacae = test: MIC against Gram-negative bacteria: Enterobacter cloacae; conditions: for MIC against E. cloacae: Enterobacter cloacae
# How it was run: as §1
# Aeromonas hydrophila = test: MIC against Gram-negative bacteria: Aeromonas hydrophila; conditions: for MIC against A. hydrophila: Aeromonas hydrophila
# How it was run: as §1
# Citrobacter diversus = test: MIC against Gram-negative bacteria: Citrobacter diversus; conditions: for MIC against C. diversus: Citrobacter diversus
# How it was run: as §1
# Moraxella catarrhalis = test: MIC against Gram-negative bacteria: Moraxella catarrhalis; conditions: for MIC against M. catarrhalis: Moraxella catarrhalis
# How it was run: as §1
# Proteus mirabilis = test: MIC against Gram-negative bacteria: Proteus mirabilis; conditions: for MIC against P. mirabilis: Proteus mirabilis
# How it was run: as §1
# Proteus vulgaris = test: MIC against Gram-negative bacteria: Proteus vulgaris; conditions: for MIC against P. vulgaris: Proteus vulgaris
# How it was run: as §1
# Serratia marcescens = test: MIC against Gram-negative bacteria: Serratia marcescens; conditions: for MIC against S. marcescens: Serratia marcescens
# How it was run: as §1
# [1] = 96-well plate, 5×10^5 CFU/mL, 37° C., 10 h
# [2] = E. coli BL21, 96-well plate, 5×10^5 CFU/mL, 37° C., 10 h
# [3] = 10 h cultivation at 37° C., 5×10^5 CFU/mL, two-fold serial dilution
substance,measurement,setting,value
PRT711 (GDNMCRVNNGGCSTLCLAIPGGRVCACADNQLLDENGTTCT; listed as Homo sapiens),MIC,E. coli DH5α,25 µg/mL
same,MIC E. coli BL21,E. coli BL21; [1],12.5 µg/mL
same,MIC P. aeruginosa,Pseudomonas aeruginosa; [1],50 µg/mL
same,MIC K. pneumonia,Klebsiella pneumonia; [1],12.5 µg/mL
same,MIC E. cloacae,Enterobacter cloacae; [1],25 µg/mL
same,MIC A. hydrophila,Aeromonas hydrophila; [1],50 µg/mL
same,MIC C. diversus,Citrobacter diversus; [1],12.5 µg/mL
same,MIC M. catarrhalis,Moraxella catarrhalis; [1],50 µg/mL
same,MIC P. mirabilis,Proteus mirabilis; [1],12.5 µg/mL
same,MIC P. vulgaris,Proteus vulgaris; [1],25 µg/mL
same,MIC S. marcescens,Serratia marcescens; [1],50 µg/mL
PRT922 (LQCRDGYEPCVNEGMCVTYHNGTGYCKCPEGFLGEYCQ; listed as Homo sapiens),MIC,E. coli DH5α,12.5 µg/mL
same,MIC,"E. coli BL21; E. coli BL21, 10 h cultivation at 37° C.",25 µg/mL
same,MIC,"Pseudomonas aeruginosa; P. aeruginosa, 10 h cultivation at 37° C.",12.5 µg/mL
same,MIC,"Klebsiella pneumonia; K. pneumonia, 10 h cultivation at 37° C.",12.5 µg/mL
same,MIC,"Enterobacter cloacae; E. cloacae, 10 h cultivation at 37° C.",25 µg/mL
same,MIC,"Aeromonas hydrophila; A. hydrophila, 10 h cultivation at 37° C.",25 µg/mL
same,MIC,"Citrobacter diversus; C. diversus, 10 h cultivation at 37° C.",25 µg/mL
same,MIC,"Moraxella catarrhalis; M. catarrhalis, 10 h cultivation at 37° C.",25 µg/mL
same,MIC,"Proteus mirabilis; P. mirabilis, 10 h cultivation at 37° C.",50 µg/mL
same,MIC,"Proteus vulgaris; P. vulgaris, 10 h cultivation at 37° C.",25 µg/mL
same,MIC,"Serratia marcescens; S. marcescens, 10 h cultivation at 37° C.",12.5 µg/mL
PRT1246 (CKELCSCHPHGQCEDVTGQCTCHARRWGARCE; listed as Homo sapiens),MIC,E. coli DH5α,50 µg/mL
same,MIC against E. coli BL21,E. coli BL21; [2],25 µg/mL
same,MIC against P. aeruginosa,Pseudomonas aeruginosa; [1],12.5 µg/mL
same,MIC against K. pneumonia,Klebsiella pneumonia; [1],25 µg/mL
same,MIC against E. cloacae,Enterobacter cloacae; [1],50 µg/mL
same,MIC against A. hydrophila,Aeromonas hydrophila; [1],25 µg/mL
same,MIC against C. diversus,Citrobacter diversus; [1],12.5 µg/mL
same,MIC against M. catarrhalis,Moraxella catarrhalis; [1],25 µg/mL
same,MIC against P. mirabilis,Proteus mirabilis; [1],50 µg/mL
same,MIC against P. vulgaris,Proteus vulgaris; [1],25 µg/mL
same,MIC against S. marcescens,Serratia marcescens; [1],12.5 µg/mL
PRT1128 (VANSCTPNPCENDGVCTDIGGDFRCRCPAGFIDKTCS; listed as Homo sapiens),MIC,E. coli DH5α,12.5 µg/mL
same,MIC E. coli BL21,E. coli BL21; [3],50 µg/mL
same,MIC P. aeruginosa,Pseudomonas aeruginosa; [3],12.5 µg/mL
same,MIC K. pneumonia,Klebsiella pneumonia; [3],50 µg/mL
same,MIC E. cloacae,Enterobacter cloacae; [3],12.5 µg/mL
same,MIC A. hydrophila,Aeromonas hydrophila; [3],50 µg/mL
same,MIC C. diversus,Citrobacter diversus; [3],12.5 µg/mL
same,MIC M. catarrhalis,Moraxella catarrhalis; [3],50 µg/mL
same,MIC P. mirabilis,Proteus mirabilis; [3],12.5 µg/mL
same,MIC P. vulgaris,Proteus vulgaris; [3],50 µg/mL
same,MIC S. marcescens,Serratia marcescens; [3],12.5 µg/mL
PRT1209 (ATEDCASNPCQNGGVCNPSPAGGYYCKCSALYIGTHCE; listed as Homo sapiens),MIC,E. coli DH5α,50 µg/mL
same,MIC against E. coli BL21,E. coli BL21; [2],12.5 µg/mL
same,MIC against P. aeruginosa,Pseudomonas aeruginosa; [1],25 µg/mL
same,MIC against K. pneumonia,Klebsiella pneumonia; [1],50 µg/mL
same,MIC against E. cloacae,Enterobacter cloacae; [1],25 µg/mL
same,MIC against A. hydrophila,Aeromonas hydrophila; [1],12.5 µg/mL
same,MIC against C. diversus,Citrobacter diversus; [1],25 µg/mL
same,MIC against M. catarrhalis,Moraxella catarrhalis; [1],12.5 µg/mL
same,MIC against P. mirabilis,Proteus mirabilis; [1],12.5 µg/mL
same,MIC against P. vulgaris,Proteus vulgaris; [1],25 µg/mL
same,MIC against S. marcescens,Serratia marcescens; [1],12.5 µg/mL
PRT1324 (PITSCLEQTGKCHPLASCQSTSSGVWSCVCQEGYEGDGFL; listed as Homo sapiens),MIC,E. coli DH5α,12.5 µg/mL
same,MIC against E. coli BL21,E. coli BL21; [2],25 µg/mL
same,MIC against P. aeruginosa,Pseudomonas aeruginosa; [1],50 µg/mL
same,MIC against K. pneumonia,Klebsiella pneumonia; [1],25 µg/mL
same,MIC against E. cloacae,Enterobacter cloacae; [1],12.5 µg/mL
same,MIC against A. hydrophila,Aeromonas hydrophila; [1],50 µg/mL
same,MIC against C. diversus,Citrobacter diversus; [1],25 µg/mL
same,MIC against M. catarrhalis,Moraxella catarrhalis; [1],12.5 µg/mL
same,MIC against P. mirabilis,Proteus mirabilis; [1],25 µg/mL
same,MIC against P. vulgaris,Proteus vulgaris; [1],12.5 µg/mL
same,MIC against S. marcescens,Serratia marcescens; [1],25 µg/mL
PRT211 (DIDECSYSSYLCQYRCVNEPGRFSCHCPQGYQ; listed as Homo sapiens),MIC,E. coli DH5α,25 µg/mL
same,MIC (μg/mL) E. coli BL21,"E. coli BL21; E. coli BL21, 10 h cultivation at 37° C., 5×10^5 CFU/mL",12.5 µg/mL
same,MIC (μg/mL) P. aeruginosa,"Pseudomonas aeruginosa; P. aeruginosa, 10 h cultivation at 37° C., 5×10^5 CFU/mL",25 µg/mL
same,MIC (μg/mL) K. pneumonia,"Klebsiella pneumonia; K. pneumonia, 10 h cultivation at 37° C., 5×10^5 CFU/mL",12.5 µg/mL
same,MIC (μg/mL) E. cloacae,"Enterobacter cloacae; E. cloacae, 10 h cultivation at 37° C., 5×10^5 CFU/mL",25 µg/mL
same,MIC (μg/mL) A. hydrophila,"Aeromonas hydrophila; A. hydrophila, 10 h cultivation at 37° C., 5×10^5 CFU/mL",50 µg/mL
same,MIC (μg/mL) C. diversus,"Citrobacter diversus; C. diversus, 10 h cultivation at 37° C., 5×10^5 CFU/mL",25 µg/mL
same,MIC (μg/mL) M. catarrhalis,"Moraxella catarrhalis; M. catarrhalis, 10 h cultivation at 37° C., 5×10^5 CFU/mL",12.5 µg/mL
same,MIC (μg/mL) P. mirabilis,"Proteus mirabilis; P. mirabilis, 10 h cultivation at 37° C., 5×10^5 CFU/mL",25 µg/mL
same,MIC (μg/mL) P. vulgaris,"Proteus vulgaris; P. vulgaris, 10 h cultivation at 37° C., 5×10^5 CFU/mL",50 µg/mL
same,MIC (μg/mL) S. marcescens,"Serratia marcescens; S. marcescens, 10 h cultivation at 37° C., 5×10^5 CFU/mL",25 µg/mL
